Reference: patent US9675593B2, “Anti-fibrotic pyridinones” (InterMune, Inc., priority 2012, dated 2017)

These molecules were tested on TGF-b induced Endothelin-1 (ET-1) production (assay: ET-1 assay: inhibitory effect on TGF-b induced endothelin-1 production). Conditions: Homo sapiens, Fibroblast; fibroblasts, stimulant (TGFb, serum, LPA etc), ET-1 by ELISA.
Type: cell-based
Description: Assay of Inhibitory Effect on TGF-b induced Endothelin-1 Production
Fibroblasts (primary human lung and dermal, HFL-1, 3T3 etc) are seeded in 96-well plates at ˜15000 cells/well and serum starved for 0-48 hours. After media exchange, compounds serially diluted in DMSO are added to the cells. After a brief incubation of ˜30 min, stimulants (TGFb, serum, LPA etc) are added followed by further incubation for 16-48 hours. Media is then harvested and stored frozen in plate format for later endothelin-1 (ET-1) determination by ELISA. Toxicity measurements are made using the ATPlite kit (Perkin-Elmer). ET-1 is quantified using an ELISA kit (R&D Systems). The amount of ET-1 produced in the assay wells are back-calculated using the ELISA standard. The ability of a compound to inhibit ET-1 production is typically analyzed by fitting dose-response curves to a 4-parameter logistic function to obtain an EC50 value. A measure of cytotoxicity (CC50) is likewise reported from the same experiment using the ATPlite data.

Structure (SMILES) | EC50 [µM]
O=c1ccc(-c2ccnnc2)cn1-c1ccc(OC(F)(F)F)cc1 [Compound 347] | 50 to 200
Cc1cc(-c2cnn(C)c2)cn(-c2ccc(OC(F)(F)F)cc2)c1=O [Compound 352] | 50 to 200
O=C(Nc1cc(=O)n(-c2ccc(OC(F)(F)F)cc2)cc1-c1ccc(F)cc1)Oc1ccccc1 [Compound 113] | > 200
